Where two headings read alike, the source gives them in different places.
System: MM1S cells
Test: Cell viability assay in MM1S cells
Assay type: cell-based, human
Details: for Maximal Inhibition (%) of growth / IC50: 0.3 nM to 3 μM, nonlinear fit, ± SD; for IC50 / inhibition at 1 µM: Homo sapiens, MM1.S; for IC50: read-out: IC50 of antiproliferation
Experimental: FIG. 14A is a histogram depicting cell viability of MM1S cells treated with compounds at 1 μM for 72 h. FIG. 14B is a graph showing cell viability of MM1S cells treated with compounds at concentrations from 0.3 nM to 3 μM for 72 h. All data were normalized to vehicle (DMSO)-treated group and dot plot represented as mean of relative viability (n=3) with ±SD as error bar. For the curve in FIG. 14B, nonlinear fitting of inhibitor concentration vs. response (three parameters) was generated by GraphPad Prism with R^2 from 0.92 to 0.97. Statistical significance was analyzed by one-way ANOVA for FIG. 14A and two-way ANOVA for FIG. 14B. Not significant (ns) P>0.05, *P≤0.05, **P≤0.01, ***P≤0.001, ****P≤0.0001.
FIG. 18 is a histogram showing that HDAC6 degrader and IMiD inhibited MM1S growth synergistically. MM1S cells were treated for 72 h and cell proliferation was examined by AlarmaBlue-brand cell viability assay (ThermoFisher Scientific, Waltham, Mass., USA). Statistical significance was analyzed by one-way ANOVA. Not significant (ns) P>0.05, *P≤0.05, **P≤0.01, ***P≤0.001, ****P≤0.000
Single treatment or co-treatment was performed as combined therapy (1 μM) for 72 hours in MM1S cells. […] However, the single treatment of 12d improved about 19% (P=0.0017) and 11% (P=0.0213) growth inhibition comparing with the combination sets of 13+15 (1:1) and pomalidomide+Next-A (1:1), respectively. To further confirm the observed enhancement, the anti-proliferation in response to 12d was studied from 0.3 nM to 3 μM. This single treatment was compared with dual treatment of 13 and 15 to rule out the potential complication derived from cell permeability issue. Degrader 12d lowered the bottom line (minimal proliferation) of curve over 20% although its IC50 was […] consequentially.
MM1S cells were harvested and plated with 1×10^5 cells in […] media per well in 96-well plate. After overnight seeding, 25 μL media containing 5× dosing concentration of the compounds or vehicle was added to each well. After 72-hour treatment at 37° C. in a humidified 5% CO2 atmosphere, 12.5 μL 10× resazurin solution (1 mg/mL) was added to each well. Then cells were incubated at 37° C. overnight. The optical density was read at 570 nm and 600 nm by plate reader.
The relative viability (RV) was measured by followed formula: […]
The single treatment of HDAC6 inhibitor, HDAC6 degrader 3j, IMiD (pomalidomide), and the combination of the two was compared in MM1S cells to evaluate cell vialility. […] Pomalidomide suppressed ˜50% proliferation at either 1 μM or 100 nM concentration. […] The results confirmed that HDAC6 degradation and IKZF degradation work synergistically to inhibit the growth of multiple myeloma cells.

CCCCN(Cc1ccc(C(=O)NO)cc1)C(=O)Nc1ccc(OCCCCCn2cc(CNc3cccc4c3C(=O)N(C3CCC(=O)NC3=O)C4=O)nn2)cc1 (stereo not shown) [Compound 2]
anti-proliferation effect of degrader alone: significant anti-proliferation effect

CCCCN(Cc1ccc(C(=O)NO)cc1)C(=O)Nc1ccccc1 [Next-A, 4-[[butyl[(phenylamino)carbonyl]amino]methyl]-N-hydroxy-benzamide, reference compound]
anti-proliferation effect, single treatment (1 μM, 72 h): did not show any anti-proliferation effect | effect on cell growth (1 μM, 72 h): minor effects

CCCCN(Cc1ccc(C(=O)NO)cc1)C(=O)Nc1ccc(OCCCCCn2cc(CNc3cccc4c3C(=O)N(C3CCC(=O)NC3=O)C4=O)nn2)cc1 (stereo not shown) [Compound 12d, 4-((1-butyl-3-(4-((5-(4-(((2-(2,6-dioxopiperidin-3-yl)-1,3-dioxoisoindolin-4-yl)amino)methyl)-1H-1,2,3-triazol-1-yl)pentyl)oxy)phenyl)ureido)methyl)-N-hydroxybenzamide]
Maximal Inhibition (%) of growth (72 h): 63.15 ± 1.82% | degrader concentration at which HDAC6 degradation and IKZF degradation had synergistic effects (72 h): > 300 nM | lowering of bottom line (minimal proliferation) of curve (72 h, versus 13 and 15 dual treatment): over 20% | IC50 (72 h): 0.0749 ± 0.0114 µM | inhibition at 1 µM (1 μM, 72 h, P=0.0017, read-out: improvement of growth inhibition compared with 13+15 (1:1)): ~19% | inhibition at 1 µM (1 μM, 72 h, P=0.0213, read-out: improvement of growth inhibition compared with pomalidomide+Next-A (1:1)): ~11%

Nc1cccc2c1C(=O)N(C1CCC(=O)NC1=O)C2=O (stereo not shown) [Pomalidomide, reference compound]
suppression of proliferation (either 1 μM or 100 nM, 72 h): ~50%

CCCCN(Cc1ccc(C(=O)OC)cc1)C(=O)Nc1ccc(OCCCCCn2cc(CNc3cccc4c3C(=O)N(C3CCC(=O)NC3=O)C4=O)nn2)cc1 (stereo not shown) [Compound 13, Methyl 4-((1-butyl-3-(4-((5-(4-(((2-(2,6-dioxopiperidin-3-yl)-1,3-dioxoisoindolin-4-yl)amino)methyl)-1H-1,2,3-triazol-1-yl)pentyl)oxy)phenyl)ureido)methyl)benzoate]
Maximal Inhibition (%) of growth (72 h): 43.96 ± 1.16% | IC50 (72 h): 0.0177 ± 0.00284 µM

CCCCN(Cc1ccc(C(=O)NO)cc1)C(=O)Nc1ccc(OCCCCCn2cc(CNc3cccc4c3C(=O)N(C3CCC(=O)N(C)C3=O)C4=O)nn2)cc1 (stereo not shown) [Compound 15, 4-((1-butyl-3-(4-((5-(4-(((2-(1-methyl-2,6-dioxopiperidin-3-yl)-1,3-dioxoisoindolin-4-yl)amino)methyl)-1H-1,2,3-triazol-1-yl)pentyl)oxy)phenyl)ureido)methyl)-N-hydroxybenzamide]
effect on cell growth (1 μM, 72 h): totally inactive
